Measured values: the RepoRT retention time repository (doi:10.1016/j.jchromb.2020.122105)

Assays:
Settings in all cases: stereoisomer not certain
[1] = RP, Waters ACQUITY UPLC BEH C18, 100 × 2.1 mm, 1.7 µm, 0.1 mL/min, estimated dead time 2.2 min; A: water + 0.045% formic acid + 0.11% ammonium hydroxide, pH 7; B: methanol; gradient (min/%B) 0/5 5/5 25/95 25.1/100 35/100 35.1/5 45/5
[2] = RP, Waters ACQUITY UPLC BEH C18, 100 × 2.1 mm, 1.7 µm, 0.1 mL/min, estimated dead time 2.2 min; A: water + 0.1% formic acid, pH 3; B: methanol + 0.1% formic acid, pH 3; gradient (min/%B) 0/5 5/5 25/95 25.1/100 35/100 35.1/5 45/5
[3] = RP, Waters CORTECS T3, 100 × 2.1 mm, 2.7 µm, 0.1 mL/min, estimated dead time 2.2 min; A: water + 0.1% formic acid, pH 3; B: methanol + 0.1% formic acid, pH 3; gradient (min/%B) 0/0 1/0 6/5 30/100 35/100 35.1/0 40/0
[4] = RP, Waters CORTECS T3, 100 × 2.1 mm, 2.7 µm, 0.15 mL/min, estimated dead time 1.5 min; A: water + 0.1% formic acid, pH 3; B: methanol + 0.1% formic acid, pH 3; gradient (min/%B) 0/0 1/0 6/5 30/100 35/100 35.1/0 40/0
[5] = RP, Waters CORTECS T3, 100 × 2.1 mm, 2.7 µm, 0.2 mL/min, estimated dead time 1.1 min; A: water + 0.1% formic acid, pH 3; B: methanol + 0.1% formic acid, pH 3; gradient (min/%B) 0/0 1/0 6/5 30/100 35/100 35.1/0 40/0
[6] = RP, Waters CORTECS T3, 100 × 2.1 mm, 2.7 µm, 0.2 mL/min, estimated dead time 1.1 min; A: water + 0.045% formic acid + 0.11% ammonium hydroxide, pH 7; B: methanol; gradient (min/%B) 0/5 5/5 25/95 25.1/100 35/100 35.1/5 45/5
[7] = RP, Waters CORTECS T3, 100 × 2.1 mm, 2.7 µm, 0.25 mL/min, estimated dead time 0.88 min; A: water + 0.1% formic acid, pH 3; B: methanol + 0.1% formic acid, pH 3; gradient (min/%B) 0/0 1/0 6/5 30/100 35/100 35.1/0 40/0
[8] = RP, Waters ACQUITY UPLC BEH C18, 100 × 2.1 mm, 1.7 µm, 0.1 mL/min, estimated dead time 2.2 min; A: water + 0.1% formic acid, pH 3; B: methanol + 0.1% formic acid, pH 3; gradient (min/%B) 0/5 5/5 25/95 25.1/100 35/100 35.1/5 45/5; remark: listed apart in the source
[9] = RP, Waters CORTECS T3, 100 × 2.1 mm, 2.7 µm, 0.3 mL/min, estimated dead time 0.73 min; A: water + 0.1% formic acid, pH 3; B: methanol + 0.1% formic acid, pH 3; gradient (min/%B) 0/5 5/5 25/95 25.1/100 35/100 35.1/5 45/5
[10] = RP, Thermo Scientific Hypercarb, 150 × 2.1 mm, 5 µm, 0.1 mL/min, estimated dead time 3.3 min; A: water + 0.1% formic acid, pH 3; B: methanol + 0.1% formic acid, pH 3; gradient (min/%B) 0/5 5/5 20/100 35/100 35.1/5 45/5
[11] = RP, Waters CORTECS T3, 100 × 2.1 mm, 2.7 µm, 0.3 mL/min, estimated dead time 0.73 min; A: water + 0.1% formic acid, pH 3; B: methanol + 0.1% formic acid, pH 3; gradient (min/%B) 0/0 5/0 25/100 30/100 30.1/0 35/0
[12] = RP, Waters ACQUITY UPLC BEH C18, 100 × 2.1 mm, 1.7 µm, 0.1 mL/min, estimated dead time 2.2 min; A: water + 0.1% formic acid, pH 3; B: methanol + 0.1% formic acid, pH 3; gradient (min/%B) 0/5 5/5 25/100 30/100 30.1/5 35/5
[13] = RP, Waters CORTECS T3, 100 × 2.1 mm, 2.7 µm, 0.1 mL/min, estimated dead time 2.2 min; A: water + 0.1% formic acid, pH 3; B: methanol + 0.1% formic acid, pH 3; gradient (min/%B) 0/5 5/5 25/95 25.1/100 35/100 35.1/5 45/5
[14] = RP, Waters CORTECS T3, 100 × 2.1 mm, 2.7 µm, 0.3 mL/min, estimated dead time 0.73 min; A: water + 0.1% formic acid, pH 3; B: methanol + 0.1% formic acid, pH 3; gradient (min/%B) 0/5 5/5 25/100 30/100 30.1/5 35/5
[15] = RP, Waters ACQUITY UPLC BEH C18, 100 × 2.1 mm, 1.7 µm, 0.2 mL/min, estimated dead time 1.1 min; A: water + 0.025% formic acid + 20 mM ammonium acetate + 0.055% ammonium hydroxide, pH 7; B: methanol; gradient (min/%B) 0/5 5/5 25/100 30/100 30.1/5 35/5
[16] = RP, Waters CORTECS T3, 100 × 2.1 mm, 2.7 µm, 0.3 mL/min, estimated dead time 0.73 min; A: water + 0.1% formic acid, pH 3; B: methanol + 0.1% formic acid, pH 3; gradient (min/%B) 0/0 1/0 6/5 30/100 35/100 35.1/0 40/0
[17] = HILIC, Waters XBridge BEH Amide, 100 × 2.1 mm, 2.5 µm, 0.5 mL/min, estimated dead time 0.44 min; A: water + 0.1% acetic acid + 10 mM ammonium acetate, pH 4; B: 5% water + 95% acetonitrile + 0.1% acetic acid + 10 mM ammonium acetate, pH 4; gradient (min/%B) 0/95 5/95 20/57 25/57 30/95 40/95

| LC retention time [1] | LC retention time [2] | LC retention time [3] | LC retention time [4] | LC retention time [5] | LC retention time [6] | LC retention time [7] | LC retention time [8] | LC retention time [9] | LC retention time [10] | LC retention time [11] | LC retention time [12] | LC retention time [13] | LC retention time [14] | LC retention time [15] | LC retention time [16] | LC retention time [17] | SMILES |
| --- | --- | --- | --- | --- | --- | --- | --- | --- | --- | --- | --- | --- | --- | --- | --- | --- | --- |
| 20.5 min | 15.7 min | 11.8 min | 14.7 min | 13.4 min | 16.5 min | 12.6 min | 15.6 min | 10.5 min |  | 11.4 min | 15.2 min | 15.1 min | 10.4 min | 16.6 min | 12 min | 0.65 min | Cc1cc2nc[nH]c2cc1C [DIMETHYLBENZIMIDAZOLE] |
| 18.5 min | 18.5 min | 14.5 min | 17.7 min | 16.2 min | 14.5 min | 15.3 min | 18.5 min | 12.9 min |  | 13.6 min | 18.2 min | 18 min | 12.7 min | 14.7 min | 14.6 min |  | OCCc1c[nH]c2ccccc12 [INDOLE-3-ETHANOL] |
| 26.6 min | 25.8 min | 21.8 min | 25.7 min | 24.7 min | 22.8 min | 23.9 min | 25.7 min | 20.6 min | 28.5 min | 20.3 min | 24.5 min | 24.5 min | 20 min | 22.8 min | 23.4 min |  | CCCCCCCCCCCC(=O)OC(CC(=O)[O-])C[N+](C)(C)C (stereo unspecified) [LAUROYLCARNITINE] |
| 15.3 min | 15.2 min | 11.4 min | 14.4 min | 12.9 min | 11.7 min | 12.1 min | 15.2 min | 9.92 min |  | 11 min | 15.1 min | 15.1 min | 9.81 min | 11.7 min | 11.4 min |  | CSc1ncnc2nc[nH]c12 [THIOPURINE S-METHYLETHER] |

The remaining lines, values behind:

| SMILES | LC retention time [1] | LC retention time [2] | LC retention time [3] | LC retention time [4] | LC retention time [5] | LC retention time [6] | LC retention time [7] | LC retention time [8] | LC retention time [9] | LC retention time [10] | LC retention time [11] | LC retention time [12] | LC retention time [13] | LC retention time [14] | LC retention time [15] | LC retention time [16] | LC retention time [17] |
| --- | --- | --- | --- | --- | --- | --- | --- | --- | --- | --- | --- | --- | --- | --- | --- | --- | --- |
| CC1C(=O)Nc2ccccc21 (stereo unspecified) [3-METHYL-2-OXINDOLE] | 19.2 min | 19.2 min | 15.2 min | 18.4 min | 17 min | 15.2 min | 16.1 min | 19.2 min | 13.6 min | 32.3 min | 14.2 min | 18.9 min | 18.8 min | 13.3 min |  |  |  |
| CC12CCC(=O)C=C1CCC1C2C(O)CC2(C)C1CCC2(O)C(=O)CO (stereo unspecified) [CORTISOL] | 21.6 min | 21.6 min | 18.5 min | 22 min | 20.8 min | 18.5 min | 20 min | 21.6 min | 17.2 min |  | 17.3 min | 21.1 min | 21.6 min | 16.7 min | 18.1 min | 19.4 min |  |
| CC12CCC(=O)C=C1CCC1C2C(=O)CC2(C)C1CCC2(O)C(=O)CO (stereo unspecified) [CORTISONE] | 21 min | 21 min | 18 min | 21.4 min | 20.2 min | 18 min | 19.5 min | 21 min | 16.7 min |  | 16.9 min | 20.5 min | 21 min | 16.3 min | 17.6 min | 18.9 min |  |
| CC(=O)OCC(=O)C1CCC2C3CCC4=CC(=O)CCC4(C)C3CCC12C (stereo unspecified) [DEOXYCORTICOSTERONE ACETATE] | 25.3 min | 25.3 min | 22.4 min | 26.3 min | 25.2 min | 22.4 min | 24.4 min | 25.3 min | 21.1 min |  | 20.8 min | 24.5 min | 25.4 min | 20.4 min | 21.6 min | 23.8 min |  |
